Article PMC9959048, “Lipidation of Naturally Occurring α-Helical Antimicrobial Peptides as a Promising Strategy for Drug Design” (International Journal of Molecular Sciences, 2023)
Values after ≈ are worked out from the molar mass of the structure shown. Residues, ends and D or L forms follow the SMILES beside them. *: point of attachment. Palmitoyl = CCCCCCCCCCCCCCCC(=O)*; Myristoyl = CCCCCCCCCCCCCC(=O)*

Legend:
S. aureus PCM1650 = format: cell-based, Staphylococcus aureus; conditions: Mueller–Hinton broth, inoculum 5 × 10^5 CFU/mL, 24 h, 37 °C, absorbance 600 nm, triplicate
Experimental: (§1) The evaluation of the antimicrobial activity of the synthesized lipopeptides was performed against the following reference bacterial and fungal strains: Staphylococcus aureus PCM 1650, Staphylococcus aureus PCM 2054, Staphylococcus epidermidis PCM 521, Staphylococcus epidermidis PCM 2118, Escherichia coli PCM 2057, Candida albicans PCM 2566, Candida glabrata CCM 8270, Candida krusei CCM 8271, Candida parapsilosis CCM 8260.
(§2) For the initial cultivation of the bacteria and fungi, Luria-Bertani broth (LB, Biomaxima, Lublin, Poland) and Sabouraud Dextrose broth (SB, Biomaxima, Lublin, Poland) were used, respectively. Antimicrobial properties of the compounds were analyzed through the determination of MIC (minimal inhibitory concentrations) by my means of the serial micro-dilution technique according to the guidelines of Clinical & Laboratory Standard Institute (CLSI) established for aerobic bacteria and yeasts.
(§3) According to the procedures, Mueller–Hinton broth (MHB) was used as the working medium for the analysis of the bacterial susceptibility, while RPMI-1640 (with L-glutamine, without sodium bicarbonate) growth medium buffered with MOPS (morpholinepropanesulfonic acid) and supplemented with 2% glucose was used for the experiments with the fungi.
(§4) The experiments were carried out for 24 h at 37 and 35 °C for the bacteria and fungi, respectively. Then, the absorbance was measured at 600 nm for each well of the 96-well plate using a microplate reader (Sunrise TM, Tecan Trading AG, Männedorf, Switzerland). Based on the obtained results, the degree of inhibition of the growth of microorganisms (expressed in %) in the presence of the tested compounds range was determined with respect to the control probes. Inoculated wells without peptide were treated as a positive control (100% growth), and the wells containing working medium only were defined as a negative control (0% growth). All measurements were repeated in triplicate.

S. aureus PCM2054 = format: cell-based, Staphylococcus aureus; conditions: Mueller–Hinton broth, inoculum 5 × 10^5 CFU/mL, 24 h, 37 °C, absorbance 600 nm, triplicate
Experimental: as §1, §2, §3, §4

S. epidermidis PCM2118 = format: cell-based, Staphylococcus epidermidis; conditions: Mueller–Hinton broth, inoculum 5 × 10^5 CFU/mL, 24 h, 37 °C, absorbance 600 nm, triplicate
Experimental: as §1, §2, §3, §4

S. epidermidis PCM521 = format: cell-based, Staphylococcus epidermidis; conditions: Mueller–Hinton broth, inoculum 5 × 10^5 CFU/mL, 24 h, 37 °C, absorbance 600 nm, triplicate
Experimental: as §1, §2, §3, §4

E. coli PCM2057 = format: cell-based, Escherichia coli; conditions: Mueller–Hinton broth, inoculum 5 × 10^5 CFU/mL, 24 h, 37 °C, absorbance 600 nm, triplicate
Experimental: as §1, §2, §3, §4

C. albicans PCM2566 = format: cell-based, Candida albicans; conditions: RPMI-1640 with MOPS and 2% glucose, inoculum 5 × 10^3 CFU/mL, 24 h, 35 °C, absorbance 600 nm, triplicate
Experimental: as §1, §2, §3, §4

C. glabrata CCM8270 = format: cell-based, Candida glabrata; conditions: RPMI-1640 with MOPS and 2% glucose, inoculum 5 × 10^3 CFU/mL, 24 h, 35 °C, absorbance 600 nm, triplicate
Experimental: as §1, §2, §3, §4

C. krusei CCM8271 = format: cell-based, Candida krusei; conditions: RPMI-1640 with MOPS and 2% glucose, inoculum 5 × 10^3 CFU/mL, 24 h, 35 °C, absorbance 600 nm, triplicate
Experimental: as §1, §2, §3, §4

C. parapsilosis CCM 8260 = format: cell-based, Candida parapsilosis; conditions: RPMI-1640 with MOPS and 2% glucose, inoculum 5 × 10^3 CFU/mL, 24 h, 35 °C, absorbance 600 nm, triplicate
Experimental: as §1, §2, §3, §4

fungi Candida spps = experiment: MIC, antifungal activity; format: cell-based; conditions: text summary of Table 1, Candida strains
Experimental: as §1
as §2, with “yeasts. […]” for “yeasts.”
as §4, with “Inoculated wells without peptide were treated as a positive control (100% growth), and the wells containing working medium only were defined as a negative control (0% growth). All measurements were repeated in triplicate.” left out

SMILES | MIC, S. aureus PCM1650 (S. aureus PCM1650) [µg/mL] | MIC, S. aureus PCM2054 (S. aureus PCM2054) [µg/mL] | MIC, S. epidermidis PCM2118 (S. epidermidis PCM2118) [µg/mL] | MIC, S. epidermidis PCM521 (S. epidermidis PCM521) [µg/mL] | MIC, E. coli PCM2057 (E. coli PCM2057) [µg/mL] | MIC, C. albicans PCM2566 (C. albicans PCM2566) [µg/mL] | MIC, C. glabrata CCM8270 (C. glabrata CCM8270) [µg/mL] | MIC, C. krusei CCM8271 (C. krusei CCM8271) [µg/mL] | MIC, C. parapsilosis CCM 8260 (C. parapsilosis CCM 8260) [µg/mL] | MIC, antifungal activity (fungi Candida spps) [µg/mL]
CCCCCCCCCCCCCC(=O)N[C@@H](CCCCN)C(=O)N[C@@H](CCCNC(=N)N)C(=O)N[C@@H](Cc1ccccc1)C(=O)N[C@@H](CCCCN)C(=O)N[C@@H](CCCCN)C(=O)N[C@@H](Cc1ccccc1)C(=O)N[C@@H](Cc1ccccc1)C(=O)N[C@@H](CCCCN)C(=O)N[C@@H](CCCCN)C(=O)N[C@@H](CC(C)C)C(=O)N[C@@H](CCCCN)C(N)=O [C14-ATRA-1] (Myristoyl-KRFKKFFKKLK-NH2) | 12.5 (≈ 7.32 µM) | 3.9 (≈ 2.28 µM) | 6.25 (≈ 3.66 µM) | 25 (≈ 14.6 µM) | >50 | 2.5 (≈ 1.46 µM) | 3.13 (≈ 1.83 µM) | 2.5 (≈ 1.46 µM) | 3.13 (≈ 1.83 µM) | 
CCCCCCCCCCCCCCCC(=O)N[C@@H](CCCCN)C(=O)N[C@@H](CCCNC(=N)N)C(=O)N[C@@H](Cc1ccccc1)C(=O)N[C@@H](CCCCN)C(=O)N[C@@H](CCCCN)C(=O)N[C@@H](Cc1ccccc1)C(=O)N[C@@H](Cc1ccccc1)C(=O)N[C@@H](CCCCN)C(=O)N[C@@H](CCCCN)C(=O)N[C@@H](CC(C)C)C(=O)N[C@@H](CCCCN)C(N)=O [C16-ATRA-1] (Palmitoyl-KRFKKFFKKLK-NH2) |  | >50 | 12.5 (≈ 7.2 µM) | 25 (≈ 14.4 µM) | >50 | 2.5 (≈ 1.44 µM) | 3.13 (≈ 1.8 µM) | 2.5 (≈ 1.44 µM) | 3.13 (≈ 1.8 µM) | ≤ 3.13
CC[C@H](C)[C@H](NC(=O)[C@H](CCCCN)NC(=O)CNC(=O)[C@H](CC(C)C)NC(=O)[C@@H](NC(=O)[C@H](CCCCN)NC(=O)[C@H](CCCCN)NC(=O)[C@H](Cc1c[nH]c2ccccc12)NC(=O)[C@H](CC(N)=O)NC(=O)[C@@H](N)C(C)C)C(C)C)C(=O)N[C@H](C(=O)N[C@@H](CCCCN)C(=O)N[C@H](C(=O)N[C@@H](C)C(=O)N[C@@H](CCCCN)C(N)=O)C(C)C)[C@@H](C)CC [LL-I, reference compound] (H-VNWKKVLGKIIKVAK-NH2) | 25 (≈ 14.5 µM) | >50 | 6.25 (≈ 3.63 µM) | 12.5 (≈ 7.25 µM) | 12.5 (≈ 7.25 µM) | >50 | >50 | 50 (≈ 29 µM) | 50 (≈ 29 µM) | 
